The target in data set [1] is T1, STK33 (Homo sapiens, UniProt Q9BYT3). As to the kind of experiment: Kinase assay screening against STK33 at 500 nM. In kind it is biochemical. Details: purchased SelectScreen Services (ThermoFisher).
The nature of data set [2]: Metabolic stability assay in liver microsomes (HLM). In kind it is in vitro ADME, human. The settings on record: human, liver microsomes, 2.0 µM, 0.5 mg protein/mL, NADPH; data >60 min is an extrapolated estimate; read-out: Metabolic stability HLM, t1/2. The procedure: (§1) Metabolic stability assay in liver microsomes. The stabilities of CDD-2110, CDD-2211, CDD-2212, CDD-2807, and CDD-3348 in liver microsomes with/without Uridine Diphosphate Glucuronic Acid (UDP-GA, a cofactor of UDP-glucuronosyltransferases) were performed and half-life was calculated as previously reported (36). Briefly, each CDD compound (2.0 μM) was incubated in the mouse or human liver microsomes (0.5 mg protein/mL) at 37°C in 1× PBS fortified with NADPH (1.0 mM) and with/without UDP-GA (2.5 mM). Alamethicin (25 µg/mL) as a pore forming agent was used for the glucuronidation (Table S2A). The samples were collected at specific time-points 0, 30, and 60 min in duplicate. The reactions were terminated by adding equivalent volume of ice-cold methanol (CH3OH) and vortexed. After centrifugation at 15000 g for 10 min, 3.0 μL of the supernatant was analyzed by Thermo TSQ Quantis MS coupled with a Thermo Vanquish UHPLC (San Jose, CA) equipped with a Luna C18 column (1 mm × 50 mm, 1.6 µm, Phenomenex, Torrance, CA). The column temperature was maintained at 40°C. CDD-2807 was monitored under the selected reaction monitoring (SRM) mode coupled with a positive electrospray ionization (ESI) source. The SRM ion pairs were 447→321 for CDD-2807.

Data set [3] is described as follows: Metabolic stability assay in liver microsomes (MLM). In kind it is in vitro ADME, mouse. The settings on record: mouse, liver microsomes, 2.0 µM, 0.5 mg protein/mL, NADPH; data >60 min is an extrapolated estimate; read-out: Metabolic stability MLM, t1/2. The procedure:
as §1

The target of data set [4] is T2, CLK4 (Homo sapiens, UniProt Q9HAZ1). Put plainly: LanthaScreen binding assay (ThermoFisher SelectScreen). Details: purchased SelectScreen Services (ThermoFisher). The source says: (§2) In vitro biochemical assays. Several small molecule assays were outsourced to SelectScreen Services (ThermoFisher) for STK33 and for off-target kinases (data sets are available on demand).
T2 sequence (Q9HAZ1 whole entry): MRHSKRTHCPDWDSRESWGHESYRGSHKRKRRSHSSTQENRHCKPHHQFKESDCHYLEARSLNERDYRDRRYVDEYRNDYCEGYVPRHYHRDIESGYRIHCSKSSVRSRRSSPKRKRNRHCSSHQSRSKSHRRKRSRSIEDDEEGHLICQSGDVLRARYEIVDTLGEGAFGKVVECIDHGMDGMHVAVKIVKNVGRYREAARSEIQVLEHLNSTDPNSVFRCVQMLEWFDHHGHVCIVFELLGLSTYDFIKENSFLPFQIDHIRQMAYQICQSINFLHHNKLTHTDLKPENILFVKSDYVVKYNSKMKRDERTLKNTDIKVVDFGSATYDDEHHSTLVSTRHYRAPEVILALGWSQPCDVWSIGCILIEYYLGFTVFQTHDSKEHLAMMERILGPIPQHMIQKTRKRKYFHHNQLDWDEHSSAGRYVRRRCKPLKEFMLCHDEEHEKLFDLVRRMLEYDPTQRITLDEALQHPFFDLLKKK
(§3) These assays are LanthaScreen (binding assay) and Z’-LYTE (activity assay). Dose-responses were done with at least 5 different concentrations in duplicates, and parameters were optimized by calculations described below and provided with standard errors.
(§4) Calculation of Kd values for kinase inhibitors that bind to the ATP pocket of a kinase from LanthaScreen binding data. DynaFit (71) was used to fit complex equilibria where a tracer is displaced by a dilution series of a kinase inhibitor. This method relies on the concentration of inhibitor, as well as the concentration of kinase and tracer, and Kd of the tracer. The latter three parameters are tabulated by ThermoFisher for each kinase in the LanthaScreen assay panel. […]

Data set [5] addresses T2, CLK4. Put plainly: NanoBRET target engagement intracellular kinase assay. In kind it is cell-based. More on the design: host or cells: HEK293 (HEK293T cultured). The procedure:
(§5) NanoBRET Target Engagement intracellular kinase assay. HEK293T cells were cultured in […]
(§6) The cell line underwent authentication by short tandem repeat (STR) profiling at Cytogenetics and Cell Authentication Core (CCAC) at MD Anderson Cancer Center. NanoBRET Target Engagement intracellular kinase assay, K-10 assay (Cat. # N2641), K-9 assay (Cat. # N2631), transfection reagent FuGENE HD (Cat. # E2311), transfection carrier DNA (Cat. # E4881), NanoLuc-STK33 fusion vector (Cat. # NV2111), NanoLuc-RET fusion vector (Cat. # NV1951), NanoLuc-CLK1 fusion vector (Cat. # NV1131), NanoLuc-CLK2 fusion vector (Cat. # NV1141), and NanoLuc-CLK4 fusion vector (Cat. # NV1151) were purchased from Promega. The measurement of test compound engagement with cellular target protein was performed in a 384-well format according to manufacturer’s instructions. HEK293 cells were transiently transfected with NanoLuc (STK33, RET, CLK1, CLK2, and CLK4) fusion vectors. After 36 hours of transfection, cells were treated with a fixed concentration of tracer (recommended by Promega) followed by compounds (inhibitors) for 2 hours of incubation. To determine the test compound […]
(§7) 0.4 nM at a fixed tracer concentration. Staurosporine was measured in parallel as a positive control.
(§8) Freshly prepared NanoBRET Nano-Glo substrate plus extracellular NanoLuc inhibitor was then added to initiate the subsequent bioluminescence resonance energy transfer (BRET) measurements using a CLARIOstar Plus BMG LABTECH plate reader. Data analysis was done by measuring the ratio of acceptor emission to donor emission (BRET ratio) and normalized by subtracting no-tracer-control-background. IC50 values were obtained by nonlinear regression using a four-parameter equation in GraphPad Prism 7 (San Diego, CA).

Data set [6] addresses T3, CLK1 (Homo sapiens, UniProt P49759). Described as above. Format: cell-based. Details: host or cells: HEK293 (HEK293T cultured). The procedure:
as §5, §6, §7, §8

The target in data set [7] is T4, CLK2 (Homo sapiens, UniProt P49760). The description is as above. In kind it is cell-based. More on the design: host or cells: HEK293 (HEK293T cultured). The procedure:
as §5, §6, §7, §8

Data set [8] deals with T5, RET (Homo sapiens, UniProt P07949). The description is as above. Format: cell-based. More on the design: host or cells: HEK293 (HEK293T cultured). The procedure:
as §5, §6, §7, §8

The target of data set [9] is T1, STK33. The description is as above. The settings on record: HEK293 cells, 2 hours incubation. In kind it is cell-based. Details: host or cells: HEK293 (HEK293T cultured). The procedure: as §5, §6, §7, §8
Data set [10] concerns the target T1, STK33. As to the kind of experiment: LanthaScreen binding assay (ThermoFisher SelectScreen). More on the design: purchased SelectScreen Services (ThermoFisher).
Description: as §2, §3, §4
Since Kd and Ki values are defined the same way, in other words, Kd = [E] [I] / [EI] = Ki, Kd and Ki values can be compared. […]

Data set [11] concerns the target T3, CLK1. As to the kind of experiment: Z'-LYTE activity assay (ThermoFisher SelectScreen). Format: biochemical. More on the design: purchased SelectScreen Services (ThermoFisher). The settings on record: [ATP] = Kmapp.
Description: as §2
(§9) These assays are LanthaScreen (binding assay) and Z’-LYTE (activity assay). Dose-responses were done with at least 5 different concentrations in duplicates, and parameters were optimized by calculations described below and provided with standard errors. […]
(§10) Calculation of Ki values for kinase inhibitors from Z’-LYTE inhibition data. The Morrison equation with [ATP] = Kmapp for competitive inhibition (GraphPad Prism 7, San Diego, CA) was used to get Ki values. Since Kd and Ki values are defined the same way, in other words, Kd = [E] [I] / [EI] = Ki, Kd and Ki values can be compared. […]

Data set [12] deals with T4, CLK2. Put plainly: Z'-LYTE activity assay (ThermoFisher SelectScreen). Format: biochemical. More on the design: purchased SelectScreen Services (ThermoFisher). The settings on record: [ATP] = Kmapp.
Description: as §2, §9, §10

Data set [13] has as its target T5, RET. Put plainly: Z'-LYTE activity assay (ThermoFisher SelectScreen). In kind it is biochemical. The settings on record: [ATP] = Kmapp. Details: purchased SelectScreen Services (ThermoFisher).
Description: as §2, §9, §10

The mark [14] stands for this setting: HEK293 cells, 2 hours incubation.

T1 sequence (Q9BYT3 whole entry): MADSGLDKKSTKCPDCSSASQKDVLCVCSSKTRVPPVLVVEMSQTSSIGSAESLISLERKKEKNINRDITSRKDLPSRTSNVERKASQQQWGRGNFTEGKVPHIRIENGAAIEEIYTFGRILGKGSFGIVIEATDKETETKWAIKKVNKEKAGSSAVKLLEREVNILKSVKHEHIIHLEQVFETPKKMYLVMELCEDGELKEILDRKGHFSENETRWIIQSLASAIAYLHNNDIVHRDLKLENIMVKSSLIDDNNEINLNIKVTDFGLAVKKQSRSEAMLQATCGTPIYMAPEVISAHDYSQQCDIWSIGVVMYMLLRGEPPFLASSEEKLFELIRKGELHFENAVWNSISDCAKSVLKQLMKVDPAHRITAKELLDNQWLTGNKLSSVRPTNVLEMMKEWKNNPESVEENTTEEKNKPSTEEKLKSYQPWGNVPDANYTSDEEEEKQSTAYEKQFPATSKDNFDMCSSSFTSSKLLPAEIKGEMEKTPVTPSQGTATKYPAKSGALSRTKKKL
T5 sequence (P07949 29-1114): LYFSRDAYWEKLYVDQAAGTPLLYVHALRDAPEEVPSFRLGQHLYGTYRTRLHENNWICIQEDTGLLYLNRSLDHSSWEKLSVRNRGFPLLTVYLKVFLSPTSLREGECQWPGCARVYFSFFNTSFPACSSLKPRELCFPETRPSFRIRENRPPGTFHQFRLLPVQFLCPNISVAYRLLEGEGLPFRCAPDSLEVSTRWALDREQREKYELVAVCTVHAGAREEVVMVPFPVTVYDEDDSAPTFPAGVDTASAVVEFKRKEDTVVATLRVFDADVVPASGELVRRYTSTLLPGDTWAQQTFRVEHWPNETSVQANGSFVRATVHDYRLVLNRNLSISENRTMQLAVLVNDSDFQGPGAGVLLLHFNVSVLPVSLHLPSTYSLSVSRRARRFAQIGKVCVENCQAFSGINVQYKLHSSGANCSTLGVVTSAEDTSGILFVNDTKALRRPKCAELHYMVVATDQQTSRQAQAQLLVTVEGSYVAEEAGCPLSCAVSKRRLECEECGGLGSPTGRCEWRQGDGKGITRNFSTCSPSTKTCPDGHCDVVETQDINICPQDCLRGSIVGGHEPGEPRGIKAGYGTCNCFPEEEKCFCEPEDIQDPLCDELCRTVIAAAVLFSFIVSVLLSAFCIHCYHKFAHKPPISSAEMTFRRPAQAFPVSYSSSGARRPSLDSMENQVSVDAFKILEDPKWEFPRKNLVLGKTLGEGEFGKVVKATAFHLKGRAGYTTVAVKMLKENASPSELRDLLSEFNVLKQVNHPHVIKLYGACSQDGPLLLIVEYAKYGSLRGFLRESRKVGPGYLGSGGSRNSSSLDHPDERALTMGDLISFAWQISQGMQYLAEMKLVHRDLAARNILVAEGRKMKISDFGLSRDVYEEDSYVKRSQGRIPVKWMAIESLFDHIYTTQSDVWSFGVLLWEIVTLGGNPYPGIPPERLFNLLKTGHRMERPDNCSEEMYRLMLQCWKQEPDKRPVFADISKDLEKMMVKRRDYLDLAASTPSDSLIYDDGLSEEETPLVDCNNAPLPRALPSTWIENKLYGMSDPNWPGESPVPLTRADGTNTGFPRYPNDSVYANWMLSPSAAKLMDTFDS
T4 sequence (P49760 whole entry): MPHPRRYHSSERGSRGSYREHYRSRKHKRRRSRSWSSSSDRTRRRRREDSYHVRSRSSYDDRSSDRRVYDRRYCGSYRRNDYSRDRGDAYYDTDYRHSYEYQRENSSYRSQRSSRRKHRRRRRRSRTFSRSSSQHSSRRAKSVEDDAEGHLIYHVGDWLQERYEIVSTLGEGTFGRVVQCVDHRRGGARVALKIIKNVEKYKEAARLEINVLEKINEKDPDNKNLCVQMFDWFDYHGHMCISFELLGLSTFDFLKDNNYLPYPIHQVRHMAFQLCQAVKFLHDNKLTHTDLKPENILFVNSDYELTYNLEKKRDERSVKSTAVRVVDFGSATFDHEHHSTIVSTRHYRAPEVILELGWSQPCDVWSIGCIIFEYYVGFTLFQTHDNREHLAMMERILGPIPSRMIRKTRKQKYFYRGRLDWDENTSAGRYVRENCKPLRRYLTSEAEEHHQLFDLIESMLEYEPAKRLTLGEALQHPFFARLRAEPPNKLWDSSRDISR
T3 sequence (P49759 whole entry): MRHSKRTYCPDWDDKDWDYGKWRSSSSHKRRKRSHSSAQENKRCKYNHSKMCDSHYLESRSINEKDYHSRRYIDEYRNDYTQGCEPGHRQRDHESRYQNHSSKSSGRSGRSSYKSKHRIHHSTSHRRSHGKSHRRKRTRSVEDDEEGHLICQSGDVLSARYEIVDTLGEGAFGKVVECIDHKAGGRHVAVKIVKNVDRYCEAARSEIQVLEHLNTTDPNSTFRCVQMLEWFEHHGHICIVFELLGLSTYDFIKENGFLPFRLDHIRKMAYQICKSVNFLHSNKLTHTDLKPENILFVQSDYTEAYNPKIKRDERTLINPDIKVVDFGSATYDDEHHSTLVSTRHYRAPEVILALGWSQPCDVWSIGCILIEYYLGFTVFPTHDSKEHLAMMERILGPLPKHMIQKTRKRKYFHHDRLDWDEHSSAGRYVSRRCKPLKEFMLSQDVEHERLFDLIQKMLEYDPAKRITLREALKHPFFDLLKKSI

Regarding `CN(C)C1CCN(C(=O)c2ccc3[nH]nc(Cc4ccccc4-c4ccccc4)c3c2)C1` (stereo not drawn) [Compound S11], the “kinase assay screening against STK33” value on STK33 [1] is “not passing”.
For the molecule `CN(C)[C@H]1CCN(C(=O)c2ccc3[nH]nc(C#Cc4ccccc4-c4ccccc4)c3c2)C1` [CDD-2212], the figures for the half-life at 2 µM in data set [2] and in data set [3] were 8 min and 9 min, respectively. Besides, the Kd on CLK4 [4] amounted to 21.5 ± 1 nM; on STK33 [10], 1.9 nM. For the same molecule, the IC50 on CLK4 [5] (setting [14]) was found to be 5880 nM; at CLK1 [6] (setting [14]), 3230 nM; at CLK2 [7] (setting [14]) it was 1550 nM; on RET [8] (setting [14]), 1090 nM; at STK33 [9], 999 nM. For the same molecule, the “Fold NanoBRET IC50 CLK4 over STK33 (in parentheses)” value at CLK4 [5] (selectivity vs STK33) amounted to 6 X. The “Fold NanoBRET IC50 CLK1 over STK33 (in parentheses)” value on CLK1 [6] (selectivity vs STK33) was 3 X. Moreover, the “Fold NanoBRET IC50 CLK2 over STK33 (in parentheses)” value at CLK2 [7] (selectivity vs STK33) is reported as 1.5 X. Further, the “Fold NanoBRET IC50 RET over STK33 (in parentheses)” value on RET [8] (selectivity vs STK33) worked out at 1.1 X. For the same molecule, the values for the inhibition constant Ki on CLK1 [11], on CLK2 [12] and at RET [13] were 507 ± 36 nM, 54.8 ± 3 nM and 2 ± 1.4 nM, respectively.
On to `CN(C)C1CCN(C(=O)c2ccc3c(c2)c(C#Cc2ccccc2-c2ccccc2)nn3C)C1` (stereo not drawn) [Compound S8], for which the “kinase assay screening against STK33” value at STK33 [1] was “not passing”.

Values taken from publication PMC11842024, “Reversible male contraception by targeted inhibition of serine/threonine kinase 33” (Science (New York, N.Y.), 2024).
